Legend:
[1] = system: C-caspase-3 expression in HepG2 xenografts; assay: Western blot, C-caspase-3 in HepG2 xenografts; type: in vivo, Balb/c nude mice; conditions: 0.2, 1.0 and 5.0 mg/kg
Experimental: (§1) The HepG2 cells xenografts were established using the Balb/c nude mice (female, 7-week-old, 17–19 g, n = 30) (Shanghai Laboratory Animal Center, Shanghai Shi, China) were used to investigate the anti-hepatoma effect of 96. Animal experiments were reviewed and approved by the Binzhou Medical University Experimental Animal Committee. Briefly, HepG2 cells (1 × 10^7/0.2 ml PBS/mouse) were inoculated subcutaneously. Three days after the inoculation, the mice were randomly divided into five groups: the saline treated group (Control), 96 (0.2 mg/kg) group, 96 (1.0 mg/kg) treated group, 96 (5.0 mg/kg) treated group, and DOX (1.0 mg/kg) treated group. 96 were dissolved in saline containing 1% of DMSO and administered intraperitoneally every 2 d for 20 days. DOX was also administered intraperitoneally every 2 d for 20 d. The body weight and HepG2 xenografts volumes were recorded from the day of treatment, and xenografts volumes were calculated using the equation: tumour volume = length×(width)[2]×π/6. At the end of the experiment, mice were sacrificed and the xenografts were obtained for western blotting, HE staining and immunohistochemistry staining.
Western blotting was performed to detect the expression of Bcl-2, Bax and C-caspase-3 in HepG2 xenografts. Fresh HepG2 xenografts tissues were lysed and the obtained proteins were processed as the protein obtained from the HepG2 cells.

[2] = Body weight of xenograft mice; type: in vivo; conditions: 0.2, 1.0, 5.0 mg/kg i.p. every 2 d for 20 days
Experimental: as §1

[3] = system: BAX expression in HepG2 cells; assay: Western blot, BAX expression in HepG2 cells; type: cell-based, human; conditions: HepG2, 1.0, 2.0, and 4.0 μM
Experimental: (§2) The HepG2 cells were treated with BAP 96 at different concentrations (1.0, 2.0, and 4.0 µM) for 3 h, and washed twice by PBS. The cells were lysed and the extracted proteins of cell lysates were separated by 10% SDS-PAGE gel electrophoresis, then transferred onto polyvinylidene fluorides membranes. The membranes were probed with antibodies and visualized using an enhanced chemiluminescence (ECL) detection kit.

[4] = system: TNF-α production in LPS-stimulated RAW264.7 cells; assay: TNF-α production in LPS-stimulated RAW264.7 cells, ELISA; type: cell-based; conditions: BAPs 6.0 μM, PDTC 30 μM, LPS 1.0 μg/mL
Experimental: The anti-inflammatory activities of BAPs were evaluated by ELISA. After pretreated with 30 μM of positive drug pyrrolidinedithiocarbamate (PDTC) or 6 μM of BAPs for 2 h, cells were treated with LPS (1.0 μg/mL) for 22 h. The culture media were collected and centrifuged for detecting the expression levels of TNF-α by an ELISA kit (eBioScience, San Diego, CA).
TNF-α is a common pro-inflammatory factors that can be produced by LPS-stimulated RAW264.7 macrophage[14]^,[24]. In order to evaluate the anti-inflammatory activity of BAPs, the effect of BAPs on TNF-α production in LPS-stimulated RAW264.7 cells was detected by ELISA. […] Only 92 presented slightly lower expression of TNF-α secretion (about 57%).

[5] = system: Bcl-2 expression in HepG2 xenografts; assay: Immunohistochemistry staining of Bcl-2 in HepG2 xenografts; type: in vivo, Balb/c nude mice; conditions: 96 5.0 mg/kg, DOX 1.0 mg/kg, versus model group
Experimental: as §1
The HepG2 xenografts tissues were embedded using the paraffin, and sectioned for HE staining and immunohistochemistry staining. HE staining was performed routinely. The immunohistochemistry staining carried out as following. […]

[6] = system: human normal hepatic cell line (LO2); assay: Toxicity to normal cells, MTT assay, LO2; type: cell-based; conditions: Homo sapiens, 24 h
Text: (§3) Compounds 83–102 were screened against human neoplastic cell lines, such as human breast cancer cells (MCF-7), human colon cancer cells (HCT116), human lung carcinoma cells (A549), human gastric adenocarcinoma cells (SGC7901), human liver hepatocellular carcinoma cell line (HepG2), human cervical carcinoma cells (HeLa), human acute mononuclear granulocyte leukaemia (THP-1), and human normal hepatic cell line (LO2) using modified MTT assay. All the cells were obtained from the American Type Culture Collection (ATCC, Manassas, VA). The cells were cultured in DMEM or 1640. Positive controls (Doxorubicin (DOX) and Curcumin) and BAPs were initially dissolved in dimethyl sulphoxide (DMSO). Experimental concentration of DMSO was always 0.1% (v/v). The concentrations of BAPs and positive controls were 50, 20, 10, 5, 2.5, 1, 0.5, 0.1, 0.05, and 0.01 μg/mL.
(§4) The cells (1 × 10^4 cells/well) were seeded in a 96-well plate and incubated for 24 h. Cells treated with serial concentrations of drugs were incubated for another 24 h. After the media removed, 20 μL of MTT (5 mg/mL) solution was added and incubated for 4 h at 37 °C. The MTT solution was removed and then 150 μL of DMSO was added. The optical density was measured with a multi-well plate reader (TECAN, Mӓnnedorf, Switzerland) at 570 nm. The results are expressed as a decrease in the cell viability (%) in comparison to untreated controls. The concentration of each compound was examined in triplicate, and the IC50 values are expressed in Table 1.

[7] = system: human lung carcinoma cells (A549); assay: Cytotoxicity, MTT assay, A549; type: cell-based; conditions: for IC50: MTT, 24 h
Text: as §3, §4

[8] = system: p-p65 in LPS-stimulated RAW264.7 cells; assay: LPS-stimulated phosphorylation of p65 in RAW264.7 cells; type: cell-based; conditions: RAW264.7, 1.0, 2.0, 4.0 μM
Experimental: as §2
It is known that NF-κB has been implicated in the crossroad of inflammation and cancer[25]^,[26]. In our previous study, some BAPs (such as 23 and 67) could inhibit NF-κB activation by inhibiting the phosphorylation of NF-κB (P65) and IκB[13]^,[14]. Herein, it is an urgent to resolve whether 96 has the same mechanism of action as 23 and 67. Therefore, the RAW264.7 cells were pretreated with LPS, and then treated with different concentrations (1.0, 2.0, 4.0 μM) of 96. […] Similarly, the HepG2 cells were pretreated with TNF-α, then treated with different concentrations (1.0, 2.0, and 4.0 μM) of 96.

[9] = system: human acute mononuclear granulocyte leukaemia (THP-1); assay: Cytotoxicity, MTT assay, THP-1; type: cell-based; conditions: for IC50: MTT, 24 h
Text: as §3, §4

[10] = quotient of IC50 towards LO2 cells

## CN1CC(=Cc2cccc(N=Cc3cc(Br)ccc3O)c2)C(=O)C(=Cc2ccccc2F)C1 [Compound 96]
[1]
  Expression of C-caspase-3 in HepG2 xenografts: significantly increased in a dose-dependent manner
[2]
  Toxicity judged by mice body weight: correspondingly nontoxic at the experimental doses
[3]
  Expression of pro-apoptotic protein BAX: dose-dependently increased
[4]
  Inhibition of TNF-α secretion compared with PDTC (in words): strongest inhibitory effect
  TNF-α secretion: 45%
[5]
  Bcl-2 expression, immunohistochemistry: significantly reduced
[6]
  IC50: 19.9 ± 0.4 µM
[7]; Homo sapiens, A549, 24 h
  IC50: < 2000 nM
[7]
  IC50: 1600 ± 400 nM
[7]; [10]
  A549 SI (selectivity index): 12.4
[8]
  Expression level of LPS-induced p-p65: effectively decreased in a dose-dependent manner
[9]; Homo sapiens, THP-1, 24 h
  IC50: < 2000 nM
[9]
  IC50: 1100 ± 600 nM
[9]; [10]
  THP-1 SI (selectivity index): 18.1

From article PMC6691761, “Potential multifunctional agents with anti-hepatoma and anti-inflammation properties by inhibiting NF-кB activation” (Journal of Enzyme Inhibition and Medicinal Chemistry, 2019)
